Laboratory results from article PMC12786457, “Studies on the Complexation of Platinum(II) by Some 4-Nitroisothiazoles and the Cytotoxic Activity of the Resulting Complexes” (Molecules, 2025).
Entries after “also recorded” stand apart in the source; their conditions may differ. Like-named read-outs stand apart in the source and are kept apart here.

Legend:
[1] = system: MCF-7 (breast adenocarcinoma); experiment: SRB (sulforhodamine B) viability assay, MCF-7; assay type: cell-based, human; settings: SRB assay
Protocol: (§1) The cytotoxicity of the complexes C1–C5 was estimated by examining cell viability using the sulforhodamine B assay. […] However, due to the very poor solubility of the most polar complex C5 in acetone, its initial solution had to be prepared in polar N,N-dimethylacetamide (DMA) (see Section 3.7). Cisplatin was used as the reference drug. The results are presented as IC50 (50% inhibitory concentration), i.e., concentrations that reduce cell survival by 50%. The test was conducted on three cancer cell lines and one normal healthy cell line, namely, breast adenocarcinoma (MCF-7), ovarian adenocarcinoma (ES-2), lung adenocarcinoma (A549), and murine embryonic fibroblast (BALB/3T3).
(§2) Three solid tumor cell lines were used in this study: MCF-7 (breast adenocarcinoma), ES-2 (ovarian adenocarcinoma), and A549 (lung adenocarcinoma). The BALB/3T3 (mouse embryonic fibroblast) cell line was used as a comparative nonpathological tissue. All cell lines were purchased from the American Type Culture Collection (ATCC, Rockville, MD, USA). The preparation of cell cultures for cytotoxicity experiments is described in detail in the following article.
(§3) The initial solutions for subsequent dilutions in biological medium were prepared in a similar manner as described previously. […] The complex C5 was dissolved in the dimethylacetamide (DMA). All the initial solutions were prepared ex tempore and then were added to the culture medium 1:9 (v/v) to obtain a stock solution of 1 mg/mL.
(§4) The test was prepared and performed in the same manner as detailed in the following cited works.

[2] = system: ES-2 (ovarian adenocarcinoma); experiment: SRB (sulforhodamine B) viability assay, ES-2; assay type: cell-based, human
Protocol: as §1, §2, §3, §4

[3] = system: A549 (lung adenocarcinoma); experiment: SRB (sulforhodamine B) viability assay, A549; assay type: cell-based, human; settings: SRB assay
Protocol: as §1, §2, §3, §4

[4] = system: BALB/3T3 (mouse embryonic fibroblast); experiment: SRB (sulforhodamine B) viability assay, normal cells BALB/3T3; assay type: cell-based; settings: normoxia, read-out: IC50 ± SD, Normal Cells BALB/3T3, Normoxia
Protocol: as §1, §2, §3, §4

[5] = TLC Rf as a measure of relative lipophilicity; assay type: physicochemical; settings: silica gel TLC Al foils
Protocol: Measurement of the melting points (m.p.) of the obtained compounds was performed with the Büchi M560 melting point device (BÜCHI Labortechnik AG, CH-9230 Flawil/SG, Flawil, Switzerland) and was uncorrected. The ESI-MS (electrospray ionization mass spectroscopy) spectra were recorded with the compactTM Bruker Daltonics Electrospray Ionization Quadrupole Time-of-Flight (ESI-Q-TOF) spectrometer (Bruker Daltonics GmbH, Bremen, Germany). The ESI-MS measurements for new compounds were performed in both positive- and negative-ion mode in LC-MS-grade using LC-MS grade methanol as a solvent. ESI-MS spectral analysis and the simulation of the theoretical monoisotopic mass of detected ions were performed using Bruker Compass Data Analysis 4.2 software (Bruker Daltonics GmbH, Bremen, Germany). All ^1H and ^13C-NMR spectra were recorded on the following instruments: Bruker NMR AVANCE III™ 600 MHz spectrometer with Ascend™ technology magnet with a quadruple resonance NMR ‘inverse’ cryoprobe (Bruker Corporation, Billerica, MA, USA) and/or Bruker ARX-300 (300 MHz) spectrometer (Bruker Analytische Messtechnik GmbH, Rheinstetten, Germany). The NMR measurements of samples of the compounds were carried out at room temperature (20–25 °C) using 5 mm tubes in deuterated acetone-d6. NMR chemical shifts were referenced to the solvent signal, i.e., for ^1H-NMR: δ (quintet of residual acetone-d6) = 2.05 ppm and for ^13C-NMR: δ (septet of acetone-d6) = 29.84 ppm. The Nicolet iS50 FT-IR spectrophotometer (Thermo Fisher Scientific Inc., Waltham, MA, USA) was used to record the Attenuated Total Reflectance IR (ATR-FT-IR) spectra (at MIR range 4000–450 cm^−1). Recording of spectra was performed on the diamond crystal surface (32 scans, resolution: 1 cm^−1, measurement temperature: 20–25 °C) with ATR intensity correction in the Laboratory of Elemental Analysis and Structural Research, Faculty of Pharmacy, Wroclaw Medical University. A Fourier transform, Bruker VERTEX 70V vacuum spectrometer equipped with an air-cooled DTGS detector was used to obtain the Far-IR (far-infrared) spectra (below 500 cm^−1) of the Pt(II) complexes. The spectra measurements were conducted with the ATR accessory, such as a diamond ATR crystal, in the resolution of 1 cm^−1 with 64 scans in the Laboratory of Vibrational Spectroscopy of the Faculty of Chemistry at Wrocław University of Science and Technology. No ATR intensity correction was applied to Far-IR spectra. Omnic 9.3.30 and Omnic Specta 2.0 software (Thermo Fisher Scientific Inc.) was used to process and analyze spectra. A double beam U-2800 Spectrophotometer (Hitachi—Science & Technology, Tokyo, Japan) was used to record UV spectra of Pt-complexes (C1 and C2) and reaction rate measurements of the GSH complexes. Dioxane solutions of complexes were used in the following concentrations: c = 2 × 10^−5 M and 3 × 10^−5 M, respectively, for C1 and C2. Measurement of UV spectra was conducted in quartz cuvettes (path length = 10.0 mm) in the range 190–400 nm (sampling interval 1 nm, scan speed 200 nm/min). All UV experiments were performed in the Laboratory of Elemental Analysis and Structural Research, Faculty of Pharmacy, Wroclaw Medical University. Baselines were corrected with pure dioxane as the reference solvent. Thin-layer chromatography (TLC) was used to monitor the progress of the reaction course and determine the purity of the synthesized compounds. Silica gel on TLC Al foils with fluorescent indicator 254 nm (Sigma-Aldrich, Merck Group, Darmstadt, Germany) was used as the stationary phase and chloroform–acetone mixtures (volume ratios 9:1, 7:3, and 1:1) as the eluent. Detection of Pt(II) compounds in the chromatograms was performed using a 0.5% acetone solution of rubeanic acid (dithiooxamide), and organic impurities were detected by observing the plates under UV light at 250 nm. […]

[6] = Solubility in solvents (qualitative); assay type: physicochemical
[7] = TLC Rf as a measure of relative lipophilicity; assay type: physicochemical; settings: silica gel TLC Al foils; remark: listed apart in the source
[8] = cited from earlier work
[9] = hypoxia, read-out: IC50 ± SD, MCF-7 (Breast), Hypoxia
[10] = normoxia, read-out: IC50 ± SD, MCF-7 (Breast), Normoxia
[11] = hypoxia, read-out: IC50 ± SD, ES-2 (Ovarian), Hypoxia
[12] = normoxia, read-out: IC50 ± SD, ES-2 (Ovarian), Normoxia
[13] = normoxia, read-out: IC50 ± SD, A549 (Lung), Normoxia
[14] = earlier work of the authors, same methodology

**Q.** What does the source list for “cis-Dichlorobis(3-methyl-4-nitroisothiazole-5-carboxamide)platinum(II) [C5]”?
**A.** IC50 [1, 9]: 67.3 ± 28.3 µM; IC50 [1, 10]: 57.6 ± 7.69 µM; IC50 [2, 11]: 50.1 ± 7.97 µM; IC50 [2, 12]: 62.5 ± 22.7 µM; IC50 ± SD, A549 (Lung), Hypoxia ([3]; hypoxia): inactive; IC50 [3, 13]: 66.2 ± 1.15 µM; IC50 [4]: 64.2 ± 15.8 µM; Rf, Eluent: Chlorofom:Acetone Ratio 1:1 Vol. [5]: 0.655; Rf, Eluent: Chlorofom:Acetone Ratio 9:1 Vol. [5]: 0.005; solubility in acetone ([6]; acetone): very poorly soluble; also recorded: weakly soluble; solubility in acetonitrile ([6]; acetonitrile, relative to acetone): slightly better; solubility in chloroform ([6]; chloroform): practically insoluble; Rf, Eluent: Chlorofom:Acetone Ratio 9:7 Vol. [7]: 0.215

**Q.** Which “Half-time, t1/2 of reaction with GSH” value [8, 14] does the source give for `Cc1noc(C)c1[N+](=O)[O-].Cc1noc(C)c1[N+](=O)[O-].[Cl][Pt@SP1][Cl]` [cis-Pt(NO2Isoxazol)2Cl2] here?
**A.** 42 min [18]

**Q.** For `N.N.[Cl][Pt+2][Cl]` [Transplatin], which “Half-time, t1/2 of reaction with GSH” value ([8]; literature value) is on record?
**A.** 4 min [36]

**Q.** For `Cn1cc([N+](=O)[O-])cn1.Cn1cc([N+](=O)[O-])cn1.[Cl][Pt][Cl]` [trans-Pt(NO2Pyraz)2Cl2, trans-[PtCl2 (1-methyl-4-nitropyrazole)2]], which “Half-time, t1/2 of reaction with GSH” value [8, 14] is on record?
**A.** 13 min [17]

**Q.** What does the source list for `N.N.[Cl][Pt][Cl]` [Cisplatin, cis-diamminodichloroplatinum, reference compound]?
**A.** IC50 [1, 9]: 9.74 ± 5.84 µM; IC50 [1, 10]: 14.4 ± 1.4 µM; IC50 [2, 11]: 6.28 ± 2.19 µM; IC50 [2, 12]: 9.85 ± 4.68 µM; IC50 ([3]; hypoxia, read-out: IC50 ± SD, A549 (Lung), Hypoxia): 14.8 ± 1.93 µM; IC50 [3, 13]: 12.5 ± 1.64 µM; IC50 [4]: 8.1 ± 5.61 µM

**Q.** For `N.N.O=C([O-])C1(C(=O)[O-])CCC1.[Pt+2]` [Carboplatin], which “Half-time, t1/2 of reaction with GSH” value ([8]; literature value) is on record?
**A.** 16.7–32.7 h [35]

**Q.** Which “Half-time, t1/2 of reaction with GSH” value [8, 14] does the source give for `Cn1cc([N+](=O)[O-])cn1.Cn1cc([N+](=O)[O-])cn1.[Cl][Pt@SP1][Cl]` [cis-Pt(NO2Pyraz)2Cl2] here?
**A.** 83 min [17]

**Q.** With `O=C(O)C(=O)O.[NH-][C@@H]1CCCC[C@H]1[NH-].[Pt+2]` [Oxaliplatin] as the molecule, how does the “Half-time, t1/2 of reaction with GSH” value ([8]; literature value, similar conditions) read?
**A.** 44 min [35]

**Q.** Which “Half-time, t1/2 of reaction with GSH” value [8, 14] does the source give for `Cc1noc(C)c1[N+](=O)[O-].Cc1noc(C)c1[N+](=O)[O-].[Cl][Pt][Cl]` [trans-Pt(NO2Isoxazol)2Cl2, trans-dichlorobis(3,5-dimethyl-4-nitro-isoxazole)platinum(II)] here?
**A.** 18 min [18]
